Experimental data: US20090057619A1, “Compositions and Visual Perception Changing Methods” (priority 2007, published 2009)

Legend:
[1] = cited from earlier work; for reported pKa: @ 25° C.
[2] = Ratio of absorbances Abs1:Abs2 as a function of product dilution, pH kept at 9.0; type: physicochemical; details: pH 9.0; for Abs1:Abs2: no detergent
Method: Example of color change—pH is kept constant upon dilution—As shown in Tables 1 and 2 below, bromothymol blue (BTB) is assessed in representative nil-dye versions of representative hand dishwashing products: a) Dawn® Bleach Alternative, b) Dreft®, and c) nil-dye Fairy® Liquid. In a typical procedure, BTB is directly added to the hand dishwashing detergent (60 ppm BTB) and the visible spectrum monitored (λ=400-700 nm) as a function of product dilution with deionized water. After each dilution, the detergent solution is adjusted to pH 9.0 with 0.1% NaOH and the ratio of absorbances at λmax=615-635 nm (Abs1) and λmax=395-435 nm (Abs2) measured. For comparison, a 60 ppm aqueous solution of BTB is prepared and sequentially diluted with deionized water, the pH again adjusted to 9.0 after each dilution (Table 2).
For the dishwashing detergents containing BTB, the ratio Abs1:Abs2 increases upon dilution, the most significant increase occurring at product concentrations ≦2.5%. […] Absorption measurements for Tables 1 and 2 are made on an HP UV/Visibile 8453 Spectrophotometer (Hewlett-Packard).

[3] = pKa of BTB estimated by spectrophotometric titration in water and in model dishwashing detergent; type: physicochemical
Excerpt: Example of color change—pKa measurements—As outlined in the methods described by Brode (Journal of the American Chemical Society, Vol. 46, pp 581-596, 1924) and Puschett et al (Talanta, Vol. 38, Issue #3, pp 335-338, 1991), the pKa of bromothymol blue (BTB) is estimated in water and a model dishwashing detergent containing approximately 30% surfactant (combination of alkylethoxysulfonate and amine oxide). In the absence of detergent, stock solutions of BTB (6-20 ppm) are first adjusted to a pH of 11-12 and titrated with 1% HCl down to a pH of 4.0. After each pH adjustment the absorbance peak at 617 nm (Abs1) is measured and pKa estimated from the abscissa of the point of inflection. In similar fashion, BTB is added at a 60 ppm level to the dishwashing detergent, diluted 10-100 fold with deionized water and titrated with 1% HCl.

SMILES: Cc1c(C2(c3cc(C(C)C)c(O)c(Br)c3C)OS(=O)(=O)c3ccccc32)cc(C(C)C)c(O)c1Br [BTB, bromothymol blue]
- reported pKa [1]: 7.1
- pKa, literature value [1]: 7.1
- Abs1:Abs2 ([2]; BTB in water 0.3 ppm (product conc. 0.5 %)): 5.00
- Abs1:Abs2 ([2]; BTB in water 0.6 ppm (product conc. 1 %)): 4.68
- Abs1:Abs2 ([2]; BTB in water 1.2 ppm (product conc. 2 %)): 4.14
- Abs1:Abs2 ([2]; BTB in water 2.4 ppm (product conc. 4 %)): 4.59
- Abs1:Abs2 ([2]; BTB in water 3.0 ppm (product conc. 5 %)): 4.37
- Abs1:Abs2 ([2]; BTB in water 3.6 ppm (product conc. 6 %)): 4.52
- Abs1:Abs2 ([2]; BTB in water 4.8 ppm (product conc. 8 %)): 4.35
- Abs1:Abs2 ([2]; BTB in water 6.0 ppm (product conc. 10 %)): 4.47
- Abs1:Abs2 ([2]; BTB in water 7.2 ppm (product conc. 12 %)): 4.31
- Abs1:Abs2 ([2]; BTB in water 9.6 ppm (product conc. 16 %)): 4.29
- Abs1:Abs2 ([2]; BTB in water 10.8 ppm (product conc. 18 %)): 4.23
- Abs1:Abs2 ([2]; BTB in water 12.0 ppm (product conc. 20 %)): 4.16
- change in the ratio Abs1:Abs2 upon dilution ([2]; dilution with deionized water): no significant change
- pKa ([3]; model dishwashing detergent diluted with deionized water, detergent conc 1 %, model dishwashing detergent (approx. 30% surfactant)): 8.2
- pKa ([3]; model dishwashing detergent diluted with deionized water, detergent conc 5 %, model dishwashing detergent (approx. 30% surfactant)): 9
- pKa ([3]; model dishwashing detergent diluted with deionized water, detergent conc 10 %, model dishwashing detergent (approx. 30% surfactant)): 9.4
- pKa ([3]; water without detergent, detergent conc 0 % (water, absence of detergent)): 7.3

SMILES: Cc1c(C2(c3cc(Br)c(O)c(Br)c3C)OS(=O)(=O)c3ccccc32)cc(Br)c(O)c1Br [bromocresol green]
- reported pKa [1]: 4.7

SMILES: Cc1cc(C2(c3cc(C)c(O)c(Br)c3)OS(=O)(=O)c3ccccc32)cc(Br)c1O [bromocresol purple]
- reported pKa [1]: 6.3

SMILES: O=S1(=O)OC(c2cc(Br)c(O)c(Br)c2)(c2cc(Br)c(O)c(Br)c2)c2ccccc21 [bromophenol blue]
- reported pKa [1]: 4.0

SMILES: Cc1cc(C2(c3cc(C)c(O)c(Br)c3C)OS(=O)(=O)c3ccccc32)c(C)c(Br)c1O [bromoxylenol blue]
- reported pKa [1]: 7.0
